The target of data set [1] is T1, human Arginine Vasopressin Receptor 1a (AVPR1a) (Homo sapiens, UniProt P37288).
T1 construct: expressed in transfected cells; host or cells: CHO (CHO-AVPR1a, kept under G418 selection)
Kind of data set: Vasopressin V1a receptor antagonist assay (FLIPR calcium, CHO-AVPR1a cells). The format is cell-based. The procedure, abridged: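 CHO cells expressing human AVPR1a were loaded with Calcium-6 dye and preincubated with compound for 15 min at 37° C. Cells were then challenged with AVP at its daily-determined EC80, and FLIPR fluorescence was read. Compounds were tested in duplicate as 10-point 1:3 dilutions from a top final concentration of 3 μM.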

Data set [2] is described as follows: Wild-type MDCK permeability and efflux assay (Papp, efflux ratio). The format is in vitro ADME. Particulars: dog, pH 7.4, wild-type MDCK cells; for efflux ratio at 1 h, 10 μM: Papp B>A/Papp A>B, read-out: ER WT (Efflux Ratio). As for the experimental part:
The MDR1-MDCK effective efflux assay was performed as described in the BioFocus Standard Operating Procedure, ADME-SOP-56. Both wild-type (WT) and MDR1-MDCK cells (Solvo Biotechnology) were seeded onto 24-well Transwell plates at 2.35×10^5 cells per well and used in confluent monolayers after a 3 day culture at 37° C. under 5% CO2. For both cell types, test and control compounds (propranolol, vinblastine) were added (10 μM, 0.1% DMSO final, n=2) to donor compartments of the Transwell plate assembly in assay buffer (Hanks balanced salt solution supplemented with 25 mM HEPES, adjusted to pH 7.4) for both apical to basolateral (A>B) and basolateral to apical (B>A) measurements. Incubations were performed at 37° C., with samples removed from both donor and acceptor chambers at T=0 and 1 hour and compound analysed by mass spectrometry (LC-MS/MS) including an analytical internal standard.
Apparent permeability (Papp) values were determined from the relationship: Papp=[CompoundAcceptor T=end]×V Acceptor/([Compound Donor T=0]×V Donor)/incubation time×V Donor/Area×60×10^−6 cm/s
In this equation, V is the volume of each Transwell compartment (apical 125 μL, basolateral 600 μL), and concentrations are the relative MS responses for compound (normalized to internal standard) in the donor chamber before incubation and acceptor chamber at the end of the incubation, and Area is the area of cells exposed for drug transfer (0.33 cm^2).
Efflux ratios (Papp B>A/Papp A>B) were calculated for each compound from the mean Papp values in each direction for both wild-type and MDR1-MDCK cells.
In order to confirm the involvement of MDR1 in any efflux seen, an “effective efflux ratio” (EER) was calculated by comparing compound efflux ratios (ER) in the two cell types by the following equation: EER=ER(MDR1-MDCK)/ER(wild-type MDCK)
This ratio illustrates the effect of the over-expressed MDR1 normalised for the background movement of compound through the wild-type cells.
Lucifer Yellow (LY) was added to the apical buffer in all wells to assess viability of the cell layer. […] Recoveries<50% indicates compound solubility, stability or binding issues, thereby reducing the reliability of a result.
The inherent ability of a potential drug molecule to penetrate the blood brain barrier and avoid efflux by transporters expressed in the brain, can be roughly correlated with the Papp(A-B) and the efflux ratio (as defined above), respectively. A potential drug molecule with an apparent permeability<7 (10^−6 cm/sec) has low permeability (+), >7 (10^−6 cm/sec) but <10 (10^−6 cm/sec) has moderate permeability (++), >10 (10^−6 cm/sec) but <20 (10^−6 cm/sec) has good permeability (+++), and >20 (10^−6 cm/sec) is highly permeable (++++). High permeability in the WT and MDCK II cell permeability assay increases the probability of blood brain barrier penetration and access to the CNS. A potential drug molecule in the above assay system with an efflux ratio or effective efflux ratio of <1 has low probability of being an efflux substrate (++++), >1 but <2 has moderate probability of being an efflux substrate (+++), >2 but <3 has has an increased probability of being an efflux substrate (++), and >3 has a high probability of being an efflux substrate (+). If a potential drug molecule is an efflux substrate, the molecule will have a low probability of reaching exposures in the brain (site of action) that will result in efficacious levels of receptor occupancy.

Drawing on patent US12152038B2, “Vasopressin receptor antagonists and products and methods related thereto” (Neumora Therapeutics, Inc., priority 2017, dated 2024), this text covers IC50, Papp A→B and efflux ratio for 19 compounds.

By IC50 is commonly meant the concentration needed to halve the response being measured. By Papp A→B is commonly meant the apparent permeability from the apical to the basolateral side of a cell layer.

T1 sequence (P37288 whole entry): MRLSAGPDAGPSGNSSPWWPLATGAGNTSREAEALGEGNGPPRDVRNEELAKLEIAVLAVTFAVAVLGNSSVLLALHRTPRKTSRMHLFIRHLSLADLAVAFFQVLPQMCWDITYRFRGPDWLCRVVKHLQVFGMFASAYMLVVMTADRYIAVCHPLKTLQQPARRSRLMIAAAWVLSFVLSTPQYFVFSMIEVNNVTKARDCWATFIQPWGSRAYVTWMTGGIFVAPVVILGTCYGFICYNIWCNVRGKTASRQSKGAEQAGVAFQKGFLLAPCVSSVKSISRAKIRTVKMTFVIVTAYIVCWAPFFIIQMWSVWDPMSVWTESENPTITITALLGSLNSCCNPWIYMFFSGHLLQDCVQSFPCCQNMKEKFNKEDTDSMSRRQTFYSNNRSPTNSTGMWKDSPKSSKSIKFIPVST

For `Cc1ccnc(N2CC3(CN(C(=O)N4c5ccc(Cl)cc5OCC4C)C3)C2)n1` (single isomer, unassigned) [20-12-B], in data set [1], the IC50 was less than 100 nM. Moreover, in data set [2], the Papp A→B at 1 h, 10 μM is greater than 20 ×10⁻⁶ cm/s and the efflux ratio at 1 h, 10 μM was less than 1.

Turning to `CC1COc2cc(F)ccc2N1C(=O)N1CC2(C1)CN(c1noc3ccccc13)C2` (stereo not drawn) [4-3], the half-inhibitory concentration (IC50) in data set [1] is less than 100 nM. In addition, in data set [2], the Papp A→B at 1 h, 10 μM is greater than 20 ×10⁻⁶ cm/s and the efflux ratio at 1 h, 10 μM is less than 1.

For the compound `O=C(N1CC2(C1)CN(c1ccccn1)C2)N1CCOc2cc(Cl)ccc21` [8-2], the IC50 in data set [1] is less than 100 nM. In addition, in data set [2], the apical-to-basolateral permeability (Papp A→B) at 1 h, 10 μM is greater than 20 ×10⁻⁶ cm/s and the efflux ratio at 1 h, 10 μM is less than 1.

In the case of `O=C(N1CC2(C1)CN(c1cnccn1)C2)N1CCOc2cc(Cl)ccc21` [8-3], the half-maximal inhibitory concentration (IC50) in data set [1] is less than 100 nM. In addition, in data set [2], the Papp A→B at 1 h, 10 μM was greater than 20 ×10⁻⁶ cm/s and the efflux ratio at 1 h, 10 μM is less than 1.

As to `O=C(N1CC2(C1)CN(c1ccc(F)cn1)C2)N1CCOCc2cc(Cl)ccc21` [8-4], in data set [1], the IC50 is less than 100 nM. Besides, in data set [2], the Papp A→B at 1 h, 10 μM is greater than 20 ×10⁻⁶ cm/s and the efflux ratio at 1 h, 10 μM lay within 1 to 2.

For the compound `O=C(N1CC2(C1)CN(c1ccc(F)cn1)C2)N1CCc2cc(Cl)ccc21` [8-11], in data set [1], the IC50 is less than 100 nM. Further, in data set [2], the Papp A→B at 1 h, 10 μM was greater than 20 ×10⁻⁶ cm/s and the efflux ratio at 1 h, 10 μM is less than 1.

On to `O=C(N1CC2(C1)CN(c1ccccn1)C2)N1CCOCc2cc(Cl)ccc21` [8-12], for which, in data set [1], the IC50 is less than 100 nM. For the same compound, in data set [2], the Papp A→B at 1 h, 10 μM is greater than 20 ×10⁻⁶ cm/s and the efflux ratio at 1 h, 10 μM was less than 1.

With `O=C(N1CC2(C1)CN(c1cnccn1)C2)N1CCc2cc(Cl)ccc21` [8-14], in data set [1], the IC50 was less than 100 nM. Further, in data set [2], the Papp A→B at 1 h, 10 μM was greater than 20 ×10⁻⁶ cm/s and the efflux ratio at 1 h, 10 μM lay in the range of 1 to 2.

For `O=C(N1CC2(C1)CN(c1ccc(F)cn1)C2)N1CCOc2cc(Cl)ccc21` [9-7], the IC50 in data set [1] was less than 100 nM. In data set [2], the Papp A→B at 1 h, 10 μM is greater than 20 ×10⁻⁶ cm/s and the efflux ratio at 1 h, 10 μM was less than 1.

On to `O=C(N1CC2(C1)CN(c1ccc(F)cn1)C2)N1CCC(O)c2cc(Cl)ccc21` (stereo not drawn) [13-1, (6-chloro-4-hydroxy-3,4-dihydroquinolin-1(2H)-yl)(6-(5-fluoropyridin-2-yl)-2,6-diazaspiro[3.3]heptan-2-yl)methanone], for which, in data set [1], the concentration for half-maximal inhibition (IC50) was less than 100 nM. Also, in data set [2], the Papp A→B at 1 h, 10 μM was greater than 20 ×10⁻⁶ cm/s and the efflux ratio at 1 h, 10 μM was less than 1.

As for `O=C(N1CC2(C1)CN(c1ccc(F)cn1)C2)N1CCC(F)(F)c2cc(Cl)ccc21` [17-1, (6-chloro-4,4-difluoro-3,4-dihydroquinolin-1(2H)-yl)(6-(5-fluoropyridin-2-yl)-2,6-diazaspiro[3.3]heptan-2-yl)methanone], the IC50 in data set [1] was less than 100 nM. In data set [2], the Papp A→B at 1 h, 10 μM is greater than 20 ×10⁻⁶ cm/s and the efflux ratio at 1 h, 10 μM is less than 1.

For `CC1COc2cc(Cl)ccc2N1C(=O)N1CC2(C1)CN(c1noc3cccnc13)C2` (stereo not drawn) [18-3], the IC50 in data set [1] is less than 100 nM. Further, in data set [2], the Papp A→B at 1 h, 10 μM is greater than 20 ×10⁻⁶ cm/s and the efflux ratio at 1 h, 10 μM is less than 1.

For `CC1COc2cc(Cl)c(F)cc2N1C(=O)N1CC2(C1)CN(c1cccnn1)C2` (stereo not drawn) [19-4], the IC50 in data set [1] was less than 100 nM. Moreover, in data set [2], the Papp A→B at 1 h, 10 μM was greater than 20 ×10⁻⁶ cm/s and the efflux ratio at 1 h, 10 μM is less than 1.

Consider `CC1COc2cc(F)c(F)cc2N1C(=O)N1CC2(C1)CN(c1ccc(F)cn1)C2` (stereo not drawn) [19-5], for which, in data set [1], the IC50 is less than 100 nM. Further, in data set [2], the Papp A→B at 1 h, 10 μM was greater than 20 ×10⁻⁶ cm/s and the efflux ratio at 1 h, 10 μM is less than 1.

As for `Cc1cncc(N2CC3(CN(C(=O)N4c5ccc(F)cc5OCC4C)C3)C2)n1` (stereo not drawn) [20-2], in data set [1], the IC50 was less than 100 nM. Besides, in data set [2], the Papp A→B at 1 h, 10 μM was greater than 20 ×10⁻⁶ cm/s and the efflux ratio at 1 h, 10 μM is 1 to 2.

In the case of `COc1ccnc(N2CC3(CN(C(=O)N4c5ccc(Cl)cc5OCC4C)C3)C2)c1` (stereo not drawn) [20-8], in data set [1], the IC50 is less than 100 nM. In data set [2], the Papp A→B at 1 h, 10 μM is greater than 20 ×10⁻⁶ cm/s and the efflux ratio at 1 h, 10 μM is less than 1.

For the compound `COc1ccnc(N2CC3(CN(C(=O)N4c5ccc(Cl)cc5OCC4C)C3)C2)n1` (stereo not drawn) [20-9], in data set [1], the concentration for half-maximal inhibition (IC50) is less than 100 nM. In addition, in data set [2], the Papp A→B at 1 h, 10 μM was greater than 20 ×10⁻⁶ cm/s and the efflux ratio at 1 h, 10 μM is less than 1.

As to `Cc1nccnc1N1CC2(CN(C(=O)N3c4ccc(Cl)cc4OCC3C)C2)C1` (stereo not drawn) [20-10], the IC50 in data set [1] was less than 100 nM. Also, in data set [2], the Papp A→B at 1 h, 10 μM was greater than 20 ×10⁻⁶ cm/s and the efflux ratio at 1 h, 10 μM is less than 1.

As to `Cc1ccnc(N2CC3(CN(C(=O)N4c5ccc(Cl)cc5OCC4C)C3)C2)c1` (stereo not drawn) [20-11], in data set [1], the IC50 was less than 100 nM. Also, in data set [2], the Papp A→B at 1 h, 10 μM is greater than 20 ×10⁻⁶ cm/s and the efflux ratio at 1 h, 10 μM was less than 1.
